How the values were obtained:
Test in all cases: biochemical
Set-up in all cases: KINOMEscan scanMAX active site-directed competition binding assay, percent of control, 468 kinases
Settings in all cases: competition binding, percent of control
[1] = target: T1, ASK2 (Homo sapiens, UniProt O95382)
T1 construct: gene MAP3K6
Summary of the method: (§1)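 Single-concentration screen (100 μM S-carvone) in a competition binding panel of 468 human kinases (KINOMEscan scanMAX); results given as percent of control, hit cutoff 35%.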

[2] = target: CAMK1G (Homo sapiens, UniProt Q96NX5)
Summary of the method: as §1

[3] = target: CSNK1G2 (Homo sapiens, UniProt P78368)
Summary of the method: as §1

[4] = target: DAPK3 (Homo sapiens, UniProt O43293)
Summary of the method: as §1

[5] = target: T2, DCAMKL2 (Homo sapiens, UniProt Q8N568)
T2 construct: gene DCLK2
Summary of the method: as §1

[6] = target: DYRK1A (Homo sapiens, UniProt Q13627)
Summary of the method: as §1

[7] = target: EPHA7 (Homo sapiens, UniProt Q15375)
EPHA7, sequence (Q15375 whole entry): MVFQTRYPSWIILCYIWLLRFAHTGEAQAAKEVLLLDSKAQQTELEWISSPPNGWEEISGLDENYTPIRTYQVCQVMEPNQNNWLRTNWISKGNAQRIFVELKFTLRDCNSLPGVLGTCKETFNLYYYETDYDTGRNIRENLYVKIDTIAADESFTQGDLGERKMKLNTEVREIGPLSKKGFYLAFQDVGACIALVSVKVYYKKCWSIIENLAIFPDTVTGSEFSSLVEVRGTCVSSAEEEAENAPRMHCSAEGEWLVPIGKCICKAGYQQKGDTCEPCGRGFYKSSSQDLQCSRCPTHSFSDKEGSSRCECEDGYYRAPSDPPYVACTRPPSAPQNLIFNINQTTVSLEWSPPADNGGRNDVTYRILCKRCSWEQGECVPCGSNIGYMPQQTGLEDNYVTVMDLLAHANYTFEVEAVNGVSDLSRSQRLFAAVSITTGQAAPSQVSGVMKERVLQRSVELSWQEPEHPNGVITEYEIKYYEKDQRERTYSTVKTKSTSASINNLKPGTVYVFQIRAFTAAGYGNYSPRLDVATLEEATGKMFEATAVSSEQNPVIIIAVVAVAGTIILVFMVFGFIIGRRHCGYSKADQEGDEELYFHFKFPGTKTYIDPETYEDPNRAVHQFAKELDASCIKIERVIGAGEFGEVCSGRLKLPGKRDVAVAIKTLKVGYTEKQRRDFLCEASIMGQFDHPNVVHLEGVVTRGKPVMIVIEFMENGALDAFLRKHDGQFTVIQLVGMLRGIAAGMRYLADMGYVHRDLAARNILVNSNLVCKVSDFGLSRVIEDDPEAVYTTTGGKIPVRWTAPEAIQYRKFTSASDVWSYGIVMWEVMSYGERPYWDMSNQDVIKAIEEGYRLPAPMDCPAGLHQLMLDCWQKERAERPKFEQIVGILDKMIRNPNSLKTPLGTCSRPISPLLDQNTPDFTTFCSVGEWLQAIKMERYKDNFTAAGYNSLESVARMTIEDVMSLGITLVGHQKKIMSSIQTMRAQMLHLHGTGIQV
Summary of the method: as §1

[8] = target: INSRR (Homo sapiens, UniProt P14616)
INSRR, sequence (P14616 whole entry): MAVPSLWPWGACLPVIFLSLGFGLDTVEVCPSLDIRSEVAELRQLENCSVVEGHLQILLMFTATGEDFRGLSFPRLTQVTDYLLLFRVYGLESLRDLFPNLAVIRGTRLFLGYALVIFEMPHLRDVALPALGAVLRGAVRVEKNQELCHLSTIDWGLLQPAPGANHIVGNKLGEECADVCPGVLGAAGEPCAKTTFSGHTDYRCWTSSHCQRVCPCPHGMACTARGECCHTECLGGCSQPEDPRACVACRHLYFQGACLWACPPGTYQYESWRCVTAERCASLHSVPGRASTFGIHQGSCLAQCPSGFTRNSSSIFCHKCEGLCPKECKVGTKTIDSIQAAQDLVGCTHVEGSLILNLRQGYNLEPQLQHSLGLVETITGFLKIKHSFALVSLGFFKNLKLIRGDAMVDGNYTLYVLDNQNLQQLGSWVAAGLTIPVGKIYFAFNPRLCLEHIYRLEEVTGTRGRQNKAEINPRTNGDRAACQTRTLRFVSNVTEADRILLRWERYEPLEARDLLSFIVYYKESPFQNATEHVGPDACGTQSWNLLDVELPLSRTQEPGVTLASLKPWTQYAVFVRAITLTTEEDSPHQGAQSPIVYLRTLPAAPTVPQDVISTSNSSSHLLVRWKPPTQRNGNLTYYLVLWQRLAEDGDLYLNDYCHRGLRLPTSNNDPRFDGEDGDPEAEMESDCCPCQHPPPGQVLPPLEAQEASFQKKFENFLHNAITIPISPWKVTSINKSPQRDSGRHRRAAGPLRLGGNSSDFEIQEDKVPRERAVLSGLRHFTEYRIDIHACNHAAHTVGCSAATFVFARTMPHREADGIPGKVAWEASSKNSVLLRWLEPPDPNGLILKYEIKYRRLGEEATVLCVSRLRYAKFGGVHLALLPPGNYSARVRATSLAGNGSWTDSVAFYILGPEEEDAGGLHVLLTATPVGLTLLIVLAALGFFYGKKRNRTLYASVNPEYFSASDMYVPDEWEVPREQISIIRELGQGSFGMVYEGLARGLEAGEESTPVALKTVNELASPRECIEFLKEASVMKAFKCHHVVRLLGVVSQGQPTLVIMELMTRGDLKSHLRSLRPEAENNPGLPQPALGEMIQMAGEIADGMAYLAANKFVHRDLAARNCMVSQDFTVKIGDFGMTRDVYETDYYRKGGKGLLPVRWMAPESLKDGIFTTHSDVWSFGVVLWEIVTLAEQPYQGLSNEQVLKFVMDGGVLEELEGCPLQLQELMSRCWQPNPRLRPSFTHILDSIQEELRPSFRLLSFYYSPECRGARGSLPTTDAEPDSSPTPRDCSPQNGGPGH
Summary of the method: as §1

[9] = target: T3, LZK (Homo sapiens, UniProt O43283)
T3 construct: gene MAP3K13
Summary of the method: as §1

[10] = target: MAP3K2 (Homo sapiens, UniProt Q9Y2U5)
MAP3K2, sequence (Q9Y2U5 whole entry): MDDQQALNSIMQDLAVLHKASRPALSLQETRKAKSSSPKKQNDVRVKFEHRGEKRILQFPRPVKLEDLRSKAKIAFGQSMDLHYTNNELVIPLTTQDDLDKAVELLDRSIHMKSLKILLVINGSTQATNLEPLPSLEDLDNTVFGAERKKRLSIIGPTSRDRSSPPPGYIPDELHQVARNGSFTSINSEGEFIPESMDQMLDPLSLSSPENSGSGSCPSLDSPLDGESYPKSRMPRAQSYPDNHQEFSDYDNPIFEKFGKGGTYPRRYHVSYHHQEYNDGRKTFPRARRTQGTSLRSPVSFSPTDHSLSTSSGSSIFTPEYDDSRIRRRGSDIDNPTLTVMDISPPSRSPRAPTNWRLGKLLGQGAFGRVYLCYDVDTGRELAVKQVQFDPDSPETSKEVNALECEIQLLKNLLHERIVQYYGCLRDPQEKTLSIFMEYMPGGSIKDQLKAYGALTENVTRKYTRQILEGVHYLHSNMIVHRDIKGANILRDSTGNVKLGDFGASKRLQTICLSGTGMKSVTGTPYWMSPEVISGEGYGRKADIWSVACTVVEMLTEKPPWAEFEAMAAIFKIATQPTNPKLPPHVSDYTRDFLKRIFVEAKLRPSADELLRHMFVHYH
Summary of the method: as §1

[11] = target: T4, MEK6 (Homo sapiens, UniProt P52564)
T4 construct: gene MAP2K6
Summary of the method: as §1

[12] = target: MET (Homo sapiens, UniProt P08581)
Summary of the method: as §1

[13] = target: T5, MLK2 (Homo sapiens, UniProt Q02779)
T5 construct: gene MAP3K10
Summary of the method: as §1

[14] = target: T6, MST4 (Homo sapiens, UniProt Q9P289)
T6 construct: gene STK26
Summary of the method: as §1

[15] = target: MUSK (Homo sapiens, UniProt O15146)
Summary of the method: as §1

[16] = target: PDGFRB (Homo sapiens, UniProt P09619)
PDGFRB, sequence (P09619 whole entry): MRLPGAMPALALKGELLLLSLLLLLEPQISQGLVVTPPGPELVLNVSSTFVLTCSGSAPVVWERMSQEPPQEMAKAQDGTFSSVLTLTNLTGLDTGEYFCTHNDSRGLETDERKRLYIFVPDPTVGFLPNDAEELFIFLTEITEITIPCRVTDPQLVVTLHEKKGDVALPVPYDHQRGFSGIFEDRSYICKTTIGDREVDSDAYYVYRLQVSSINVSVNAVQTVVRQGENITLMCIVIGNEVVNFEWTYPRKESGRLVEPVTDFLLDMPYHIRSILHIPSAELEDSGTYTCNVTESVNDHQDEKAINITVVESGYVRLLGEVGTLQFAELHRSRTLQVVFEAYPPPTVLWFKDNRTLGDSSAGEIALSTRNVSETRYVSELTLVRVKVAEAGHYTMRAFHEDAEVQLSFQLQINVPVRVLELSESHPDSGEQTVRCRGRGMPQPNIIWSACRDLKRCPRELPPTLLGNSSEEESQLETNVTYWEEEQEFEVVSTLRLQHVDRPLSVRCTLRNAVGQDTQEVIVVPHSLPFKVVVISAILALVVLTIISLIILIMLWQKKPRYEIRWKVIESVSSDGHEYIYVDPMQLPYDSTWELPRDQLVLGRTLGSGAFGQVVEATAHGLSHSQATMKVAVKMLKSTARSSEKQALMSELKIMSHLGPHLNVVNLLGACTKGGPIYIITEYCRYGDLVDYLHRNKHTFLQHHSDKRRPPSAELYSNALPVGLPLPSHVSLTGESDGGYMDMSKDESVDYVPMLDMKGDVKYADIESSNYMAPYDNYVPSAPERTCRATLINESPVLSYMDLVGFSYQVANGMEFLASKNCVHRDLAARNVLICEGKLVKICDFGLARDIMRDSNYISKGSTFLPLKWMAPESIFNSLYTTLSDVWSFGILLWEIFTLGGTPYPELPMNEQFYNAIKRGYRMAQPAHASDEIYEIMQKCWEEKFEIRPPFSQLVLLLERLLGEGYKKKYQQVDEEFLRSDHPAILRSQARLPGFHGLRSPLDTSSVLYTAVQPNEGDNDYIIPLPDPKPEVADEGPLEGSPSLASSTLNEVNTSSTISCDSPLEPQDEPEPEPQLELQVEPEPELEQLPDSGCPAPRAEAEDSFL
Summary of the method: as §1

[17] = target: PHKG1 (Homo sapiens, UniProt Q16816)
Summary of the method: as §1

[18] = target: PIK3CA(H1047Y) (Homo sapiens, UniProt P42336, H1047Y)
Summary of the method: as §1

[19] = target: PKN2 (Homo sapiens, UniProt Q16513)
PKN2, sequence (Q16513 whole entry): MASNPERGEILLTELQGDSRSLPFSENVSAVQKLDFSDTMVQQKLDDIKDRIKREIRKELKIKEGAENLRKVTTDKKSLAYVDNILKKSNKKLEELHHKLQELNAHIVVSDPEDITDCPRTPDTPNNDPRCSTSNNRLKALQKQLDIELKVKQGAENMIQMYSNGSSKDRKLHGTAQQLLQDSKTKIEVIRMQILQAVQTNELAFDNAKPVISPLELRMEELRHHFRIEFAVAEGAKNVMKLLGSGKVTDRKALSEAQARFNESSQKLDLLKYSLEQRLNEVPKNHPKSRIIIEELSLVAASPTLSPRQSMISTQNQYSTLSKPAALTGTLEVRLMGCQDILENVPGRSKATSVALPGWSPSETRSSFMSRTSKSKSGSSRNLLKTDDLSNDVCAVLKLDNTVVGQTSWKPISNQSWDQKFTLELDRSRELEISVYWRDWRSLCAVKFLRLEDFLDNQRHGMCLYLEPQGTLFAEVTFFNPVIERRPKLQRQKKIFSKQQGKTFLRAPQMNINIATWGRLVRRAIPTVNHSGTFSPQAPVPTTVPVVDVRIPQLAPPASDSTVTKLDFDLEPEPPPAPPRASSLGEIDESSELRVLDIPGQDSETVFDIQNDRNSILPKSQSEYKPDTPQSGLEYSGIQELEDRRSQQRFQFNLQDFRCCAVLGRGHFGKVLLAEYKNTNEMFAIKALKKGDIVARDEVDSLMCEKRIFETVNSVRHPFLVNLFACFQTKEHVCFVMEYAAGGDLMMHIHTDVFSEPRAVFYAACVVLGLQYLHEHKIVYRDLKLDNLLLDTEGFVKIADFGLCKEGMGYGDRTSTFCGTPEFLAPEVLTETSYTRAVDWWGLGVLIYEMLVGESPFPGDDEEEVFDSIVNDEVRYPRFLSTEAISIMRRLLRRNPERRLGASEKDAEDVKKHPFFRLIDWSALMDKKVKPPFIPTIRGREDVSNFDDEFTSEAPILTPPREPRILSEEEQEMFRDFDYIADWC
Summary of the method: as §1

[20] = target: PRKD1 (Homo sapiens, UniProt Q15139)
Summary of the method: as §1

[21] = target: PRKG1 (Homo sapiens, UniProt Q13976)
Summary of the method: as §1

[22] = target: RET(V804L) (Homo sapiens, UniProt P07949, V804L)
Summary of the method: as §1

- remaining binding at 100 µM [1]: 100%
- remaining binding at 100 µM [2]: 89%
- remaining binding at 100 µM [3]: 87%
- remaining binding at 100 µM [4]: 84%
- remaining binding at 100 µM [5]: 87%
- remaining binding at 100 µM [6]: 91%
- remaining binding at 100 µM [7]: 91%
- remaining binding at 100 µM [8]: 84%
- remaining binding at 100 µM [9]: 78%
- remaining binding at 100 µM [10]: 58%
- remaining binding at 100 µM [11]: 82%
- remaining binding at 100 µM [12]: 90%
- remaining binding at 100 µM [13]: 83%
- remaining binding at 100 µM [14]: 100%
- remaining binding at 100 µM [15]: 100%
- remaining binding at 100 µM [16]: 69%
- remaining binding at 100 µM [17]: 100%
- remaining binding at 100 µM [18]: 92%
- remaining binding at 100 µM [19]: 83%
- remaining binding at 100 µM [20]: 61%
- remaining binding at 100 µM [21]: 84%
- remaining binding at 100 µM [22]: 87%
Structure (SMILES): C=C(C)[C@H]1CC=C(C)C(=O)C1 [S-carvone]
